Some test systems named below: ACHN; CAKI-1; CCRF-CEM; HCT-116; HCT-15; K562; M14; MDA-MB-435; MOLT-4; NCI-H522; OVCAR-4; RPMI-8226; SF-295; SR; TK-10; U-251; UACC-257; 786-0; KM12; Malme-3M.
Experiment in all cases: NCI-60 cell line screen, 48 h

The structures appear in SMILES notation.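 Test compounds were applied to cells in 96-well plates for 48 hours at 5 doses. GI50 is the concentration that inhibits growth by half.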 The source made the active and inactive calls. Rule as the data show it: active = GI50 up to about 1.1 µM and inactive = higher.

`CC[C@@H]1ON(C)[C@H]2CN(C)C(=O)[C@@H]12`: the GI50 in the experiment with ACHN was > 100 µM (inactive); in the experiment on CAKI-1, > 100 µM (inactive); with CCRF-CEM, > 100 µM (inactive); in the experiment with HCT-116 it was > 100 µM (inactive); in the experiment with HCT-15, greater than 100 µM; in the experiment on K562 it was > 100 µM (inactive). Moreover, the GI50 with M14, in the experiment with MDA-MB-435, with MOLT-4, in the experiment on NCI-H522, in the experiment on OVCAR-4 and in the experiment with RPMI-8226 was > 100 µM (inactive) throughout. Moreover, the GI50 in the experiment with SF-295, in the experiment with SR, with TK-10, with U-251 and in the experiment on UACC-257 was > 100 µM (inactive) in each case.

As for `COC(=O)/C(C#N)=C(\N)c1c(C)c2ccccc2oc1=N`, the GI50 was > 100 µM (inactive) with 786-0; > 10 µM (inactive) with CAKI-1; > 100 µM (inactive) in the experiment with HCT-116; greater than 100 µM in the experiment with HCT-15; > 100 µM (inactive) in the experiment with K562; > 100 µM (inactive) in the experiment on KM12. Moreover, the GI50 with MDA-MB-435, with MOLT-4, in the experiment with NCI-H522, in the experiment on OVCAR-4, in the experiment on RPMI-8226 and with SF-295 was > 100 µM (inactive) each time. Moreover, the GI50 with SR, in the experiment with TK-10, with U-251 and with UACC-257 was > 100 µM (inactive) in each case.

In the case of `CC(C)(C)OC(=O)NCCC(=O)NC1(c2cc3ccccc3s2)CCCCC1`, the GI50 is 17.5 µM (inactive) in the experiment on 786-0; 24.5 µM (inactive) with ACHN; 21.2 µM (inactive) with CAKI-1; 12.5 µM (inactive) in the experiment with CCRF-CEM; 13.9 µM (inactive) in the experiment on HCT-116; 15.1 µM in the experiment on HCT-15. The GI50 in the experiment on K562 is 12.3 µM (inactive); in the experiment on KM12, 18.7 µM (inactive); with M14, 18.4 µM (inactive); with MDA-MB-435 it was 17.3 µM (inactive); in the experiment with MOLT-4, 10.9 µM (inactive); in the experiment on Malme-3M, 21.5 µM (inactive). The GI50 in the experiment with NCI-H522 was 12.5 µM (inactive); in the experiment on OVCAR-4, 13.4 µM (inactive); with RPMI-8226, 0.759 µM (active); in the experiment on SF-295, 18.4 µM (inactive); in the experiment with TK-10 it was 29 µM (inactive); with U-251 it was 19.3 µM (inactive). Also, the GI50 in the experiment with UACC-257 is 19.1 µM (inactive).

Take `Cc1n[nH]c(=O)n1N=C(c1ccccc1)c1ccccc1`: the GI50 in the experiment with 786-0 was > 100 µM (inactive); in the experiment on ACHN, > 100 µM (inactive); in the experiment on CAKI-1, > 100 µM (inactive); in the experiment on CCRF-CEM, > 100 µM (inactive); in the experiment on HCT-116, > 100 µM (inactive); in the experiment on HCT-15 it was greater than 100 µM. Besides, the GI50 was > 100 µM (inactive) in the experiment with K562; > 100 µM (inactive) with KM12; > 100 µM (inactive) in the experiment with M14; > 100 µM (inactive) with MDA-MB-435; > 100 µM (inactive) in the experiment on MOLT-4; 24.9 µM (inactive) in the experiment with Malme-3M. In addition, the GI50 in the experiment on NCI-H522, in the experiment on OVCAR-4, in the experiment with RPMI-8226, with SF-295, in the experiment with TK-10 and in the experiment with U-251 was > 100 µM (inactive) each time. Also, the GI50 with UACC-257 is > 100 µM (inactive).

For `COc1cc2c(cc1OC)C1=C(C=O)c3ccc(OC)c(OC)c3C(O)N1CC2` (stereo unspecified), the GI50 in the experiment with 786-0 is 35.2 µM (inactive); in the experiment on ACHN, 28.2 µM (inactive); in the experiment on CAKI-1, 31.2 µM (inactive); in the experiment with CCRF-CEM it was 33.7 µM (inactive); with HCT-116, 30.5 µM (inactive); with HCT-15 it was 30.8 µM. For the same molecule, the GI50 in the experiment with KM12 is 28.9 µM (inactive); in the experiment with M14, 21.9 µM (inactive); in the experiment on MDA-MB-435 it was 32.2 µM (inactive); with MOLT-4, 12.5 µM (inactive); with Malme-3M, 24.5 µM (inactive); in the experiment on NCI-H522 it was 25.1 µM (inactive). The GI50 in the experiment on OVCAR-4 is 40.3 µM (inactive); in the experiment with RPMI-8226 it was 7.53 µM (inactive); with SF-295, 24 µM (inactive); with TK-10, 20.9 µM (inactive); with U-251, 19.2 µM (inactive); with UACC-257 it was 18.5 µM (inactive).

For the molecule `NCc1ccc(-c2ccc(-c3ccc(-c4ccc(CN)s4)s3)s2)s1`, the GI50 in the experiment on 786-0 was > 100 µM (inactive); in the experiment with ACHN, > 100 µM (inactive); with CAKI-1, > 100 µM (inactive); in the experiment on CCRF-CEM, > 100 µM (inactive); with HCT-116, > 100 µM (inactive); in the experiment with HCT-15, greater than 100 µM. Moreover, the GI50 with K562, in the experiment with KM12, with M14, in the experiment on MDA-MB-435, in the experiment with MOLT-4 and with Malme-3M was > 100 µM (inactive) in each case. Further, the GI50 in the experiment with NCI-H522, in the experiment on OVCAR-4, in the experiment on RPMI-8226, with SF-295, in the experiment with TK-10 and in the experiment on U-251 was > 100 µM (inactive) throughout. For the same molecule, the GI50 in the experiment on UACC-257 is > 100 µM (inactive).

For the molecule `CN(C)CC1CN=C(N)O1` (stereo unspecified), the GI50 is > 100 µM (inactive) with 786-0; > 100 µM (inactive) in the experiment on ACHN; > 100 µM (inactive) in the experiment on CAKI-1; > 100 µM (inactive) in the experiment on CCRF-CEM; > 100 µM (inactive) in the experiment with HCT-116; greater than 100 µM in the experiment on HCT-15. Moreover, the GI50 with K562, in the experiment on KM12, in the experiment on M14, in the experiment with MDA-MB-435, in the experiment with MOLT-4 and with Malme-3M was > 100 µM (inactive) throughout. For the same molecule, the GI50 with NCI-H522, in the experiment on OVCAR-4, with RPMI-8226, in the experiment on SF-295, in the experiment on TK-10 and with U-251 was > 100 µM (inactive) each time. In addition, the GI50 in the experiment on UACC-257 is > 100 µM (inactive).

In the case of `CC(C)CCCC(C)[C@H]1CC[C@H]2[C@@H]3CC[C@H]4C[C@@H](CCC=C(c5cc(Cl)c(O)c(C(=O)O)c5)c5cc(Cl)c(O)c(C(=O)O)c5)CC[C@]4(C)[C@H]3CC[C@]12C` (stereo partly specified), the GI50 in the experiment on 786-0 is 32.2 µM (inactive); in the experiment on ACHN it was > 50 µM (inactive); with CAKI-1, > 50 µM (inactive); in the experiment on CCRF-CEM, > 50 µM (inactive); in the experiment with HCT-116, > 50 µM (inactive); in the experiment on HCT-15, 36.1 µM. The GI50 with K562 was 31.1 µM (inactive); with KM12 it was > 50 µM (inactive); in the experiment with M14 it was > 50 µM (inactive); in the experiment with MDA-MB-435, > 50 µM (inactive); in the experiment on MOLT-4 it was > 50 µM (inactive); in the experiment with Malme-3M, > 50 µM (inactive). For the same molecule, the GI50 in the experiment with NCI-H522, with OVCAR-4, in the experiment with RPMI-8226, in the experiment on SF-295, in the experiment on TK-10 and in the experiment on U-251 was > 50 µM (inactive) in each case.

With `CC1(C)CCSC(/C=C/c2ccccc2)=N1`, the GI50 was 12.9 µM (inactive) in the experiment with 786-0; 17.5 µM (inactive) with ACHN; 14.8 µM (inactive) with CAKI-1; 21.5 µM (inactive) in the experiment on CCRF-CEM; 13.6 µM (inactive) in the experiment with HCT-116; 9.77 µM in the experiment on HCT-15. The GI50 in the experiment on K562 was > 100 µM (inactive); with KM12, 12 µM (inactive); in the experiment with M14 it was 13.2 µM (inactive); with MDA-MB-435, 17.9 µM (inactive); in the experiment with MOLT-4, 19 µM (inactive); in the experiment on Malme-3M, 11.8 µM (inactive). Moreover, the GI50 with NCI-H522 was 17 µM (inactive); with OVCAR-4, 16 µM (inactive); in the experiment on RPMI-8226 it was 17.7 µM (inactive); in the experiment on SF-295 it was 19.9 µM (inactive); with TK-10 it was 18.2 µM (inactive); with U-251, 17.9 µM (inactive). In addition, the GI50 in the experiment with UACC-257 was 13 µM (inactive).

In the case of `Oc1cc(O)c2ccc(-c3ccc(O)c(O)c3)[o+]c2c1`, the GI50 with 786-0 is > 100 µM (inactive); with ACHN, > 100 µM (inactive); in the experiment on CAKI-1, > 100 µM (inactive); with CCRF-CEM it was 67.9 µM (inactive); in the experiment with HCT-116, > 100 µM (inactive); in the experiment with HCT-15, greater than 100 µM. Besides, the GI50 with K562, in the experiment on KM12, with M14, in the experiment with MDA-MB-435, with MOLT-4 and in the experiment on Malme-3M was > 100 µM (inactive) throughout. For the same molecule, the GI50 is > 100 µM (inactive) in the experiment with NCI-H522; > 100 µM (inactive) in the experiment with OVCAR-4; 84.9 µM (inactive) with RPMI-8226; > 10 µM (inactive) with SF-295; > 100 µM (inactive) with TK-10; > 100 µM (inactive) with U-251. Besides, the GI50 in the experiment with UACC-257 was > 100 µM (inactive).

As for `COc1cc(C2c3cc4c(cc3[C@@H](Nc3ccc(F)cc3)C3COC[C@H]23)OCO4)cc(OC)c1O` (stereo partly specified), the GI50 in the experiment on 786-0 was 1.75 µM (inactive); with ACHN it was 1.03 µM (active); in the experiment with CCRF-CEM, 0.622 µM (active); in the experiment with HCT-116 it was 2.07 µM (inactive); in the experiment on HCT-15, 2.48 µM; in the experiment with K562 it was 4.19 µM (inactive). Moreover, the GI50 in the experiment with KM12 was 4.66 µM (inactive); in the experiment with M14, 2.22 µM (inactive); in the experiment with MDA-MB-435, 6.15 µM (inactive); in the experiment with MOLT-4, 0.118 µM (active); in the experiment with NCI-H522, 3.22 µM (inactive); with OVCAR-4 it was 11.7 µM (inactive). Besides, the GI50 in the experiment with RPMI-8226 was 1.49 µM (inactive); with SF-295, 0.877 µM (active); with SR, 0.543 µM (active); in the experiment on TK-10, 5.9 µM (inactive); in the experiment with U-251, 0.811 µM (active); with UACC-257, 7.82 µM (inactive).

For the origin of these results see ChEMBL document CHEMBL1201862, “PubChem BioAssay data set” (2004).
